# Assay results: ChEMBL document CHEMBL4706484, “Apigenin-rivastigmine hybrids as multi-target-directed liagnds for the treatment of Alzheimer's disease” (Eur J Med Chem, 2020)
# The source made the active and inactive calls. The rule behind the calls is not given here.
# Tests used:
# Danio rerio [1] = organism: Danio rerio; assay: Protection against amyloid beta (1 to 40 residues)-induced vascular injury in transgenic zebrafish assessed as efficacy on motility at 1.4 ug/ml relative to control; type: functional; conditions: dose 1.4 µg/ml
# [2] = target: Amyloid-beta precursor protein (Homo sapiens) (UniProt P05067); assay: Disaggregation of self-induced amyloid beta (1 to 42) (unknown origin) preformed fibrils at 25 uM measured after 48 hrs by TEM analysis
# Chain of Amyloid-beta precursor protein (Homo sapiens) (P05067 whole entry): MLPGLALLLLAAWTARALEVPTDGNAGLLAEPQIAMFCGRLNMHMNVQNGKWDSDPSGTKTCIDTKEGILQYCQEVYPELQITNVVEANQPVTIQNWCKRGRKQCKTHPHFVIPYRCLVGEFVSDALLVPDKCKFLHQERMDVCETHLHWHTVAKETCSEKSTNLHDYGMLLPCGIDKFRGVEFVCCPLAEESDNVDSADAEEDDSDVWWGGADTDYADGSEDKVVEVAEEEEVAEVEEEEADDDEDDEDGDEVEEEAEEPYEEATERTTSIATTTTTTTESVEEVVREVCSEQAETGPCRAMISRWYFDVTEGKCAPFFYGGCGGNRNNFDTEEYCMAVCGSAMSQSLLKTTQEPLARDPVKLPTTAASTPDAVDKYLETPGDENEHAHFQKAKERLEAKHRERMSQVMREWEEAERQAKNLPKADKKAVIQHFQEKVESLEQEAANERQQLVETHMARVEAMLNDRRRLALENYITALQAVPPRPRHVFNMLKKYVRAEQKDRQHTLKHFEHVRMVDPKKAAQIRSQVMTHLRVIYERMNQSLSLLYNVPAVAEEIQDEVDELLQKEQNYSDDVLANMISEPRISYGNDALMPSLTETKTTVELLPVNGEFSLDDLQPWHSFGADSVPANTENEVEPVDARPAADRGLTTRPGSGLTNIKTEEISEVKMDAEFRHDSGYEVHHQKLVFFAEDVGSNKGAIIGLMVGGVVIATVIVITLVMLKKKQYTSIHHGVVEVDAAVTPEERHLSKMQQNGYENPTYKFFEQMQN
# Danio rerio [3] = organism: Danio rerio; assay: Antialzheimer activity against 3 dpf zebrafish model of AlCl3-induced AD assessed as change in motility distance at 12.5 ug/ml (reference value: 5204 mm); type: functional; conditions: dose 12.5 µg/ml
# Mus musculus [4] = assay: Antialzheimer activity in scopolamine-induced Kunming mouse model of memory impairment assessed as total reads in brain hippocampus at 10 mg/kg by illumina sequencing method (reference value: 100 %); type: functional
# [5] = Cytotoxicity against human L02 cells assessed as cell viability at 25 uM measured after 72 hrs by MTT assay relative to control; type: cell-based; conditions: read-out: Activity
# [6] = Acute toxicity in 2 dpf zebrafish assessed as bradycardia at 1.39 to 12.5 ug/ml measured after 3 days; parameters: species or system Danio rerio; conditions: in vivo, 72 h, dose 1.39-12.5 µg/ml, time 3 day
# [7] = Drug metabolism in human liver microsomes assessed as metabolite formation by UPLC-MS/MS analysis; type: ADME, Microsome
# [8] = Acute toxicity in 2 dpf zebrafish assessed as body shape at 1.39 to 12.5 ug/ml measured after 3 days; parameters: species or system Danio rerio; conditions: in vivo, 72 h, dose 1.39-12.5 µg/ml, time 3 day
# [9] = Toxicity in 3 dpf zebrafish model of AlCl3-induced AD at 12.5 to 200 microg/ml; parameters: species or system Danio rerio; conditions: in vivo, dose 12.5-200 µg/ml
# [10] = target: Amyloid-beta precursor protein (Homo sapiens) (UniProt P05067); assay: Disaggregation of self-induced amyloid beta (1 to 42) (unknown origin) preformed fibrils at 25 uM by ThT fluorescence assay relative to control
# Mus musculus [11] = assay: Antialzheimer activity in scopolamine-induced Kunming mouse model of memory impairment assessed as Q30 bases ratio (QC data) in brain hippocampus at 10 mg/kg by illumina sequencing method (reference value: 96.67 %); type: functional
# [12] = Antioxidant activity of compound assessed as trolox equivalent antioxidant capacity by ORAC-FL assay; type: functional
# [13] = Inhibition of copper-induced amyloid beta (1 to 42) (unknown origin) aggregation at 25 uM by ThT fluorescence assay relative to control
# Danio rerio [14] = organism: Danio rerio; assay: Antialzheimer activity against 3 dpf zebrafish model of AlCl3-induced AD assessed as motility by measuring change in speed at 1.4 ug/ml (reference value: 1.05 mm/s); type: functional; conditions: dose 1.4 µg/ml
# [15] = Acute toxicity in 2 dpf zebrafish assessed as dark brown liver at 1.39 to 12.5 ug/ml measured after 3 days; parameters: species or system Danio rerio; conditions: in vivo, 72 h, dose 1.39-12.5 µg/ml, time 3 day
# PC-12 = assay: Cytotoxicity against rat PC-12 cells assessed as reduction in cell viability <= 100 uM measured after 48 hrs by MTT assay; type: cell-based; conditions: pc-12, 48 h
# Mus musculus [16] = assay: Antialzheimer activity in scopolamine-induced Kunming mouse model of memory impairment assessed as total mapped in brain hippocampus at 10 mg/kg by illumina sequencing method (reference value: 97.13 %); type: functional
# L02 = assay: Hepatoprotective activity H2O2-induced cell injury in human L02 cells assessed as cell viability at 10 uM measured after 48 hrs by MTT assay (reference value: 56.89 %); type: functional; conditions: read-out: Activity
# Butyrylcholinesterase = Butyrylcholinesterase (Rattus norvegicus, UniProt Q9JKC1); assay: Inhibition of rat serum BChE using acetylthiocholine iodide as substrate measured after 15 mins by Ellman's method; type: cell-free
# Chain of Butyrylcholinesterase (Q9JKC1 whole entry): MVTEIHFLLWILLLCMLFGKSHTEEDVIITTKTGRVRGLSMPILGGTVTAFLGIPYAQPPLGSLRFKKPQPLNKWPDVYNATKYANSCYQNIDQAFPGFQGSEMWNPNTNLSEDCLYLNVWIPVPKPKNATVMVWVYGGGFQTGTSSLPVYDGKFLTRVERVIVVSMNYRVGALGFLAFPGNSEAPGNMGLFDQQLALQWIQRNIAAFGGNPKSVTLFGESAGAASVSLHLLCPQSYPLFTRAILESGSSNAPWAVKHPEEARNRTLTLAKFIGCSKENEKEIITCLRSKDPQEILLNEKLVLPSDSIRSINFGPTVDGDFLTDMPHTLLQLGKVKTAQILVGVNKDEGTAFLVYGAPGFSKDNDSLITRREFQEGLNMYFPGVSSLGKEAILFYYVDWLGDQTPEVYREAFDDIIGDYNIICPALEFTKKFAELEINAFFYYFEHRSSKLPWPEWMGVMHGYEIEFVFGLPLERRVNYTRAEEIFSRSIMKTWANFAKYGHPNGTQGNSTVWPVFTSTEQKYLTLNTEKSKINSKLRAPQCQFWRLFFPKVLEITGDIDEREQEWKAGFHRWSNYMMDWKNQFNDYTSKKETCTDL
# Danio rerio [17] = organism: Danio rerio; assay: Antialzheimer activity against 3 dpf zebrafish model of AlCl3-induced AD assessed as efficacy on motility distance at 1.4 ug/ml relative to control; type: functional; conditions: dose 1.4 µg/ml
# Danio rerio [18] = organism: Danio rerio; assay: Protection against amyloid beta (1 to 40 residues)-induced vascular injury in transgenic zebrafish assessed as vascular injury rate at 4.2 ug/ml (reference value: 73.3 %); type: functional; conditions: dose 4.2 µg/ml
# Mus musculus [19] = assay: Reversal of scopolamine-induced Kunming mouse model of memory impairment assessed as spontaneous alteration at 10 mg/kg by Y-maze test (reference value: 41.6 %); type: functional
# [20] = Metal chelating activity assessed as Fe2+-compound complex formation at 37.5 uM in presence of 37.5 uM FeSO4 by UV-Vis spectrophotometric analysis
# Danio rerio [21] = organism: Danio rerio; assay: Protection against amyloid beta (1 to 40 residues)-induced vascular injury in transgenic zebrafish assessed as efficacy on motility at 4.2 ug/ml relative to control; type: functional; conditions: dose 4.2 µg/ml
# [22] = Acute toxicity in 2 dpf zebrafish assessed as yolk sac absorption delay at 4.17 ug/ml measured after 3 days relative to control; parameters: species or system Danio rerio; conditions: in vivo, 72 h, at 4.17 µg/mL, time 3 day
# Acetylcholinesterase = Acetylcholinesterase (Homo sapiens, UniProt P22303); assay: Inhibition of human erythrocytes AChE using acetylthiocholine iodide as substrate measured after 15 mins by Ellman's method; type: tissue-based, Erythrocyte
# Chain of Acetylcholinesterase (P22303 whole entry, the tested form may be a part): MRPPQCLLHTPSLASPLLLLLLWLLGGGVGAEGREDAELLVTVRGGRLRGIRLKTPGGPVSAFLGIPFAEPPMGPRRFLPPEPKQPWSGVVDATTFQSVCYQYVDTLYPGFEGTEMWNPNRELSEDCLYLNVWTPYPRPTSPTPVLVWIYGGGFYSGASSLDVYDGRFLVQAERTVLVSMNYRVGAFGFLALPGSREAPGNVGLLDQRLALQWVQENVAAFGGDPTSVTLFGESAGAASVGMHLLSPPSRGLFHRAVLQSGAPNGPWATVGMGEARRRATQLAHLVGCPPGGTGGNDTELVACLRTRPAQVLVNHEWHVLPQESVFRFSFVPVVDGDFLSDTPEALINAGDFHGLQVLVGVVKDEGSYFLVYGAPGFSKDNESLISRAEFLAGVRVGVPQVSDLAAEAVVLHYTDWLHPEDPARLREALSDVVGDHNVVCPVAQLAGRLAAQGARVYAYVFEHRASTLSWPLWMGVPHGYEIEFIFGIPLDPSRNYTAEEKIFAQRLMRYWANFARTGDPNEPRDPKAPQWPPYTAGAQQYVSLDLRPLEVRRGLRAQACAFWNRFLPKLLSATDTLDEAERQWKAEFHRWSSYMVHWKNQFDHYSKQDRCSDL
# Danio rerio [23] = organism: Danio rerio; assay: Protection against amyloid beta (1 to 40 residues)-induced vascular injury in transgenic zebrafish assessed as efficacy on motility at 12.5 ug/ml relative to control; type: functional; conditions: dose 12.5 µg/ml
# Danio rerio [24] = organism: Danio rerio; assay: Antialzheimer activity against 3 dpf zebrafish model of AlCl3-induced AD assessed as motility by measuring change in speed at 4.2 ug/ml (reference value: 1.05 mm/s); type: functional; conditions: dose 4.2 µg/ml
structure (smiles),measurement,setting,value
CCN(C)C(=O)Oc1ccc(-c2cc(=O)c3c(O)cc(OC(=O)N(C)CC)cc3o2)cc1,Efficacy,Danio rerio [1],18%
same,Activity,[2],Active
same,Activity,Danio rerio [3],6733 mm
same,Activity,Mus musculus [4],100%
same,"viability at 72 h, 25 µM",[5],83.9%
same,Activity,[6],Non-Toxic
same,Drug metabolism,[7],Metabolite_Detected
same,Activity,[8],Non-Toxic
same,Activity,[9],Non-Toxic
same,Activity,[10],66.2%
same,Activity,Mus musculus [11],96.43%
same,Activity,[12],1.3 equiv
same,inhibition,[13],78.9%
same,Activity,Danio rerio [14],1.8 millimeter/sec
same,Activity,[15],Non-Toxic
same,Activity,PC-12,Non-Toxic
same,Activity,Mus musculus [16],96.87%
same,viability at 10 µM,L02,75.6%
same,IC50,Butyrylcholinesterase,12.1 µM
same,Efficacy,Danio rerio [17],59%
same,Activity,Danio rerio [18],53%
same,Activity,Mus musculus [19],63.4%
same,Activity,[20],inactive
same,Efficacy,Danio rerio [21],27%
same,Activity,[22],33.3%
same,IC50,Acetylcholinesterase,6.8 µM
same,Efficacy,Danio rerio [23],64%
same,Activity,Danio rerio [24],1.98 millimeter/sec
